The supplement of paper PMC10307832

Legend:
Assay in all cases: relative viability (nuclei count vs DMSO), 5 days (fraction); higher = more cells survive
Mirin + Dasatinib = compound: N=C1NC(=O)/C(=C/c2ccc(O)cc2)S1 [Mirin] + Cc1nc(Nc2ncc(C(=O)Nc3c(C)cccc3Cl)s2)cc(N2CCN(CCO)CC2)n1 [Dasatinib] (partner 0.075 µM)
Procedure, shortened: (§1)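 Relative viability divides the nuclei count in treated wells by that in vehicle wells. Lung cancer cell lines were seeded in 1536-well plates, dosed by pin tool the next day, and fixed and stained after 5 days in one step with final 0.05% Triton X-100, 1% formaldehyde and 1 ug/ml Hoechst. Dosing was a single drug or a fixed anchor-drug dose plus five library-drug doses (not always all listed) in √10 steps, and values are medians of duplicate plates imaged at 4×.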

[1] = compound: CCC1=CN=CN=C1N2CCN(CC2)CC3=NC4=C(N3)C=C(C=C4)C(F)(F)F + N=C(N)NC(=N)NCCc1ccccc1 [Phenformin] (partner 250 µM)
Procedure, shortened: as §1

[2] = compound: CCC1=CN=CN=C1N2CCN(CC2)CC3=NC4=C(N3)C=C(C=C4)C(F)(F)F + C[C@]1(O)C[C@@H](c2nc(-c3ccc4ccc(-c5ccccc5)nc4c3)c3c(N)nccn32)C1 [Linsitinib] (partner 1 µM)
Procedure, shortened: as §1

[3] = compound: CCC1=CN=CN=C1N2CCN(CC2)CC3=NC4=C(N3)C=C(C=C4)C(F)(F)F + CC(C)C[C@H](NC(=O)[C@H](Cc1ccccc1)NC(=O)c1cnccn1)B(O)O [Bortezomib] (partner 0.002 µM)
Procedure, shortened: as §1

Cell Line	relative viability (Mirin + Dasatinib; first compound 0.25 µM)	relative viability (Mirin + Dasatinib; first compound 0.7906 µM)	relative viability (Mirin + Dasatinib; first compound 2.5 µM)	relative viability (Mirin + Dasatinib; first compound 7.906 µM)	relative viability (Mirin + Dasatinib; first compound 25 µM)	relative viability ([1]; first compound 0.04 µM)	relative viability ([1]; first compound 0.1265 µM)	relative viability ([1]; first compound 0.4 µM)	relative viability ([1]; first compound 1.265 µM)	relative viability ([1]; first compound 4 µM)	relative viability ([2]; first compound 0.04 µM)	relative viability ([2]; first compound 0.1265 µM)	relative viability ([2]; first compound 0.4 µM)	relative viability ([2]; first compound 1.265 µM)	relative viability ([2]; first compound 4 µM)	relative viability ([3]; first compound 0.04 µM)	relative viability ([3]; first compound 0.1265 µM)	relative viability ([3]; first compound 0.4 µM)	relative viability ([3]; first compound 1.265 µM)	relative viability ([3]; first compound 4 µM)
SW 1573	0.466	0.506	0.605	0.361	0.295	0.405	0.415	0.3	0.406	0.357	0.574	0.683	0.862	0.777	0.866	1.09	1.08	0.937	0.893	0.892
LOU-NH91	0.549	0.564	0.535	0.477	0.65	0.605	0.692	0.685	0.669	0.714	0.807	0.923	0.963	0.87	1.04	0.408	0.543	0.507	0.523	0.504
NCI-H1299											1.05	0.935	0.979	0.968	0.955	1.06	0.998	1.01	0.983	1.01
ChaGo-K-1	0.504	0.575	0.541	0.542	0.39	0.462	0.5	0.409	0.443	0.482							0.97	0.964	1.09	0.985
NCI-H2170	0.551	0.498	0.519	0.489	0.468	0.401	0.359	0.351	0.382	0.361										
A549						0.178	0.143	0.191	0.161	0.164	0.596	0.549	0.629	0.28	0.615					
Calu-6											0.883	0.851	0.871	0.819	1.02	0.969	0.924	0.871	0.884	0.829
NCI-H1623	0.46	0.426	0.542	0.44	0.497	0.58	0.543	0.604	0.525	0.62										
HCC-44						0.176	0.208	0.266	0.28	0.247	0.652	0.648	0.666	0.643	0.634	0.853	0.798	0.854	0.89	0.866
NCI-H1944	0.218	0.244	0.2	0.218	0.224	0.239	0.188	0.187	0.162	0.227	1.36	1.21	1.08		0.99					
NCI-H2342	0.35	0.342	0.327	0.289	0.317	0.579	0.477	0.611	0.429	0.547										
